Test results: patent US12208130B2, “Treatment of women affected with polycystic ovary syndrome” (INSTITUT NATIONAL DE LA SANTE ET DE LA RECHERCHE MEDICALE …, priority 2017, dated 2025)
Where a SMILES comes first, the peptide text is derived from it. [ ]: non-standard residue; d: D form. dPhe(4-Cl) = N[C@H](Cc1ccc(Cl)cc1)C(=O)O; d2Nal = N[C@H](Cc1ccc2ccccc2c1)C(=O)O; dCit = NC(=O)NCCC[C@@H](N)C(=O)O; d3Pal = N[C@H](Cc1cccnc1)C(=O)O

B1: proAMH: AMH proprotein (Origene Technologies, Cat # TP308397), injected prenatally 0.12 mg/Kg/d (protein, UniProt P03971 25-560, looked up)
pro-form: LRAEEPAVGTSGLIFREDLDWPPGSPQEPLCLVALGGDSNGSSSPLRVVGALSAYEQAFLGAVQRARWGPRDLATFGVCNTGDRQAALPSLRRLGAWLRDPGGQRLVVLHLEEVTWEPTPSLRFQEPPPGGAGPPELALLVLYPGPGPEVTVTRAGLPGAQSLCPSRDTRYLVLAVDRPAGAWRGSGLALTLQPRGEDSRLSTARLQALLFGDDHRCFTRMTPALLLLPRSEPAPLPAHGQLDTVPFPPPRPSAELEESPPSADPFLETLTRLVRALRVPPARASAPRLALDPDALAGFPQGLVNLSDPAALERLLDGEEPLLLLLRPTAATTGDPAPLHDPTSAPWATALARRVAAELQAAAAELRSLPGLPPATAPLLARLLALCPGGPGGLGDPLRALLLLKALQGLRVEWRGRDPRGPGRAQRSAGATAADGPCALRELSVDLRAERSVLIPETYQANNCQGVCGWPQSDRNPRYGNHVVLLLKMQVRGAALARPPCCVPTAYAGKLLISLSEERISAHHVPNMVATECGCR
modifications: pro-form
notes: AMH proprotein (Origene Technologies, Cat # TP308397), injected prenatally 0.12 mg/Kg/d

Assays:
pregnant mice = experiment: Dam body weight and fat mass, aborted embryos, litter size, pup weight at birth; format: in vivo, mouse
Experimental: Dams were injected from E16.5 to E18.5 with either PBS (vehicle, n=8-11), AMH (n=10), AMH+GnRH antag (n=8-10). Body weight (grams: g); (FIG. 9A), subcutaneous fat mass (FIG. 9B) and perigonadal fat mass (FIG. 9C) was measured in dams at gestational day 19.5. (FIG. 9D) Dams were injected from E16.5 to E18.5 with either PBS (vehicle, n=9), AMH (n=9), AMH+GnRH antag (n=9). Dams were sacrificed one day later and the number of aborted embryos per litter was calculated. (FIGS. 9E, 9F) Dams were injected from E16.5 to E18.5 with either PBS (vehicle, n=3), AMH (n=3), AMH+GnRH antag (n=3). The number of pups per litter (FIG. 9E) and the weight of the pups at birth (FIG. 9F) was calculated for each treatment group (vehicle, n=12 pups; AMH, n=11 pups; AMH+GnRH antag, n=12 pups). Values are represented as the mean±s.e.m. […] Data were combined from three independent experiments. FIGS. 9A to 9F: left bar: vehicle; middle bar: AMH; right bar: AMH+GnRH antagonist.

[1] = system: C57BL6/J (B6) dams and their female offspring; experiment: Plasma testosterone, LH and LH pulsatility in adult diestrus female offspring; format: in vivo, mouse
Experimental: FIGS. 3A-3J-4. Prenatal AMH treatment leads to hyperandrogenism and elevation in LH secretion/pulsatility. (FIG. 3A) Anogenital distance (AGD) was measured over post-natal days (P) 30, 35, 40, 50, and 60 in adult female control (n=6-14), PAMH (n=11-19), PAMH+GnRH antag (n=10), and GnRH antag (n=4) mice. […] One-way ANOVA and Tukey's multiple comparison post hoc test, F(19-183)=130.1, ***P<0.0001 among treatment groups and ages (P30, F(3, 43)=84.48, *P<0.05, ***P<0.0001; P35, F(3, 43)=116.9, *P<0.05, ***P<0.0001; P40, F(3, 43)=207.5, *P<0.05, ***P<0.0001; P50, F(3,27)=72.69, ***P<0.0001; P60, F(3,27)=110.5, ***P<0.0001). Bars from left to right in each group: Control, PAMH, PAMH+GnRH antag, GnRH antag. (FIG. 3B) Plasma testosterone was measured in adult females (P60) in diestrus. […] One-way ANOVA and Tukey's multiple comparison post hoc test, F(2,12)=28.67, ***P<0.0001. Bars from left to right: Control, PAMH, PAMH+GnRH antag. (FIG. 3C) Plasma LH was measured in adult females (P60) in diestrus. […] One-way ANOVA and Tukey's multiple comparison post hoc test, F(2,24)=257.3, *P<0.05, ***P<0.0001. Bars from left to right: Control, PAMH,
PAMH+GnRH antag. (FIG. 3D) Schematic representation of tail-tip blood sampling in adult diestrus female mice (3-4 months old). (FIG. 3E) Tail blood was collected every 10 min for 2 h and LH measured from 10 a.m-12 p.m in adult (P60) diestrus females (Control, n=8; PAMH, n=10; PAMH+GnRH antag, n=9; One-way ANOVA and Tukey's multiple comparison post hoc test, F(2,24)=57.06, *P<0.05, ***P<0.0001). Bars from left to right: Control, PAMH, PAMH+GnRH antag. (FIGS. 2F-1, 2F-2, 2F-3) Representative graphs for LH pulsatility over 2-hr in one female adult (P60) mouse of each treatment. Asterisks in (FIG. 3F) indicate the number of LH pulses/2-hr. (FIG. 3G) Mean circulating testosterone and LH levels were analyzed in pregnant PBS-treated (n=4) and AMH-treated (n=4) dams at embryonic day (E) 19.5 of gestation. […] (FIG. 3H) Relative mRNA expression of placental Cyp191a (aromatase) in control (n=4) and AMH (n=4)-treated pregnant animals at E19.5. Cyp191a expression in the placenta is higher in AMH-treated pregnant dams as compared to control-treated pregnant dams (Unpaired Student's t-test, t(6)=5.414, **P<0.005). Values are expressed as relative to the mean of each treatment. All values are expressed as mean±s.e.m. (FIGS. 3I-1, 3I-2, 3I-3, 3I-4) Dams were injected from E16.5 to E18.5 with either PBS (vehicle, n=9-11), AMH (n=8-10), AMH+GnRH antag (n=5) and trunk blood was collected at E19.5 for hormonal measurements by ELISA. Data were combined from at least two independent experiments. In FIGS. 3I-1, 3I-2, 3I-3, 3I-4: left bar: vehicle; middle bar: AMH; right bar: AMH+GnRH antagonist. […]

[2] = dams i.p. 0.12 mg/Kg/d E16.5-E18.5, adult female offspring in diestrus vs control

| Molecule | body weights of pups at birth (pregnant mice; dams i.p. AMH+GnRH antag E16.5-E18.5) | body weight, subcutaneous fat mass or perigonadal fat mass of dams (pregnant mice; dams injected 3 days with AMH+GnRH antag, E19.5) | PCOS-like neuroendocrine traits in the offspring ([1]; prenatal co-treatment of AMH with the GnRH antagonist) | plasma LH [1, 2] | plasma testosterone [1, 2] | LH pulse frequency / pulsatility ([1]; dams i.p. 0.12 mg/Kg/d E16.5-E18.5, adult female offspring in diestrus, tail blood every 10 min for 2 h) |
| --- | --- | --- | --- | --- | --- | --- |
| CC(=O)N[C@H](Cc1ccc2ccccc2c1)C(=O)N[C@H](Cc1ccc(Cl)cc1)C(=O)N[C@H](Cc1cccnc1)C(=O)N[C@@H](CO)C(=O)N[C@@H](Cc1ccc(O)cc1)C(=O)N[C@H](CCCNC(N)=O)C(=O)N[C@@H](CC(C)C)C(=O)N[C@@H](CCCNC(=N)N)C(=O)N1CCC[C@H]1C(=O)N[C@H](C)C(N)=O [Cetrorelix acetate, Ac-D-2Nal-D-Phe(4-Cl)-D-3Pal-Ser-Tyr-D-Cit-Leu-Arg-Pro-D-Ala-NH2] (Ac-[d2Nal][dPhe(4-Cl)][d3Pal]SY[dCit]LRP[dA]-NH2) | did not observe any changes | did not find any changes | prevented the appearance | – | – | – |
| B1 | – | – | – | increased | increased | constitutively high LH pulsatility |
